Results reported in patent publication US20240409902A1, “SYSTEMS AND METHODS FOR CULTURING PODOCYTES AND USES THEREOF” (Washington University, priority 2021, published 2024).
Entries after “also recorded” stand apart in the source; their conditions may differ.

Legend:
[1] = system: primary mouse podocytes; test: Cell relaxation and strain mapping with microbead-embedded hydrogels after CytoD; type: cell-based
Experimental: Fluorescent microbeads with a diameter of 0.2 μm (Invitrogen, F8801) were added to the hydrogel's pre-cross-linking solution with a 1:60 dilution ratio before the cross-linking step. After solidification, hydrogels were used for the strain mapping as reported earlier. Briefly, primary mouse podocytes were isolated as described above, seeded on the hydrogels, and allowed to spread for 24 hours. Next, the cells were transferred to a live-imaging chamber before adding CytoD to the culture medium (CytoD, Sigma-Aldrich, 22144-77-0; final concentration, 20 μM). In the final step, the culture medium was changed to 10% SDS to remove the attached cells completely. Cell relaxation and microbead movements were recorded immediately after adding CytoD or 10% SDS, and the strain field was calculated using a strain mapping algorithm that was developed in our previous study.
(§1) For counting and scoring cell phenotypes, imaged podocytes were divided into several categories, including (i) cells with SLSs centrally and in the periphery, (ii) cells with SLSs only in the periphery, (iii) cells with loose striated patterns of synaptopodin and myosin IIA instead of a mat of SLSs (i.e., widely spaced SLSs), and, lastly, (iv) cells without SLSs. For measuring cell length, the longest axis of the cell was determined (mostly along the micropattern direction), and the length was determined through ImageJ (v1.53e with Bio-Formats plugin).

[2] = system: primary podocytes; test: Myosin II inhibition with blebbistatin: sarcomere-like structures (SLSs) in primary podocytes, immunostained for synaptopodin and myosin IIA; type: cell-based, mouse
Experimental: After spreading, cultured podocytes on the hydrogels or glass were fixed in 4% paraformaldehyde (Electron Microscopy Sciences, 15712) for 10 min at room temperature followed by washing with 1×PBS, three times for 6 min each, and then permeabilized using 0.05% Triton X-100 for 10 min at room temperature. Next, samples were blocked using 2% bovine serum albumin (Sigma-Aldrich, A7906) for 30 min at room temperature before applying the primary antibodies overnight at 4° C. Next, samples were washed with 1×PBS, three times for 6 min each before incubating them with the secondary antibodies in PBS for 1 hour at room temperature. Last, the samples were washed in 1×PBS, three times for 6 min, and prepared for mounting using Invitrogen Slow Fade mounting medium (Invitrogen, S36917). The cover glass holding the sample (hydrogel and cells) was bonded to a second cover glass using nail polish. The primary antibodies used were myosin IIA (BioLegend, 909801, rabbit anti-mouse), myosin IIA (Abnova, clone 3C7, mouse anti-human, NH2-terminus), synaptopodin (Synaptic Systems, 163004, guinea pig anti-mouse), laminin α5 [clone 4C7, mouse anti-human], fibronectin (Sigma-Aldrich, F3648, rabbit anti-human), collagen IV (SouthernBiotech, 1340-01, goat anti-human), nephrin (R&D Systems, AF3159, goat anti-mouse), and α-SMA (Invitrogen, 14-9760-82). Alexa Fluor 555 phalloidin (Thermo Fisher Scientific, A34055) was used for actin staining. For mouse myosin antibodies (clone 3C7), samples were antigen retrieved in TE (Tris-EDTA) buffer (pH 9.0) at 65° C. for 4 hours before the permeabilization step.
Blebbistatin (EMD Millipore, 203389-5) was used to inhibit the function of myosin II in the podocytes. […] After 2 hours of treatment, the samples were washed with PBS and immediately fixed and stained as mentioned above.
Sarcomeric structures were measured using ImageJ (v1.53e with Bio-Formats plugin). Briefly, fluorescence intensity maps were acquired by plotting the intensity along a line drawn perpendicular to the sarcomere structure. For the histogram, the spacing of each sarcomere is calculated by recording the peak location in the intensity map, and n for each group represents the total sarcomere number calculated in that group. For averaged sarcomeric spacing, the mean values were calculated for each intensity map (i.e., each stress fiber that is no less than 6 μm long), while n for each group represents the number of stress fibers analyzed in that group.
as §1

[3] = system: podocytes from isolated mouse glomeruli; test: Glomerular culture and podocyte spreading on ECM-micropatterned hydrogels; type: cell-based; details: glomeruli cultured 2 days on micropatterned PAAm hydrogels
Source text: To test which micropatterned ECM proteins best support podocytes, mouse glomeruli were isolated and cultured on hydrogels coated with Lam-521, collagen IV, or fibronectin. […] Furthermore, the PAAm hydrogel was coated with Lam-521 and micropatterned protein-free patches onto the substrate using a PDMS stamp that removed Lam-521, leaving an inverse of the previous Lam-521 micropatterns interdigitated with microscale patches of exposed PAAm.
Next, the PDMS stamp was cleaned by sonication (Branson) for 20 min and washed in 50% ethanol solution before drying under nitrogen flow followed by plasma cleaning for 2 min (Harrick Plasma). Last, the PDMS stamp micropattern areas were soaked in different ECM solutions [laminin 521 (50 μg/ml; Biolamina, LN521-05), fibronectin (Corning, 356008), or collagen IV (Corning, 354233) in phosphate-buffered saline (PBS)] and left to set for 1 hour at room temperature.
After air-drying the ECM proteins atop the PDMS stamp, the excess solution was removed, and the stamp was dried further using nitrogen flow. The freshly prepared hydroxyl-PAAm hydrogel was also dried out by treatment with nitrogen flow. […]

C=C1[C@@H](C)[C@H]2[C@H](Cc3ccccc3)NC(=O)[C@]23[C@H](OC(C)=O)/C=C/[C@@](C)(O)C(=O)[C@@H](C)C/C=C/[C@H]3[C@@H]1O [CytoD, cytochalasin D]
cell length before and after CytoD ([1]; 0.9 kPa substrates, 15 min CytoD): most cells elongated along their axes; also recorded: increases in cell length associated with 15 min of CytoD treatment were statistically significant | cell length before and after CytoD ([1]; 6 kPa substrates, CytoD): Less, but still significant cell relaxation | substrate strains associated with treatment ([1]; 6 kPa substrates, CytoD compared with subsequent SDS treatment): much larger than those associated with subsequent SDS treatment | cell relaxation after actin disruption ([1]; reseeded primary podocytes, CytoD 20 μM, video recording): significant cell relaxation

Cc1ccc2c(c1)C(=O)C1(O)CCN(c3ccccc3)C1=N2 (centres unmarked) [blebbistatin, Blebbistatin]
SLS formation ([2]; 10 nM blebbistatin, 0.2- or 0.9-kPa hydrogels (FIG. 4F)): SLSs failed to form; also recorded: caused the loss of SLSs with a lower concentration of blebbistatin | SLS formation and sarcomeric spacing ([2]; 10 nM blebbistatin, 6.0-kPa hydrogels or glass substrates (FIGS. 4F and G), listed as Blebb): myosin inhibition led to wider sarcomeric spacing | effect on SLSs ([2]; 2 μM blebbistatin (milder myosin inhibition)): insufficient to disrupt the SLSs at the cell periphery but sufficient to disrupt those in the centers of the cells | effect on SLSs ([2]; 10 μM blebbistatin, 2 hours, 6.0-kPa PAAm hydrogels and cover glass with Lam-521): caused aggregation of synaptopodin in the center of the cells and increased sarcomeric spacing in SLSs that persisted at the cell periphery | effect on SLSs ([2]; 100 μM blebbistatin, 2 hours, 6.0-kPa PAAm hydrogels and cover glass with Lam-521): nearly eliminated SLSs | disruption or loss of SLSs, concentration not given ([2]; podocytes on glass or patterned hydrogels (FIGS. 4D and E)): disrupted the sarcomeric structures of SLSs in a way that depended on the dose, substrate stiffness, and position; also recorded: caused a marked loss of SLSs

human laminin α5β2γ1 trimer [Lam-521]
podocyte population of micropatterns [3]: podocytes populated micropatterns coated with Lam-521
